Measurements as given in PubChem BioAssay (NCI).
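Interpolation was linear, between the two tested concentrations surrounding the appropriate level; five concentrations were tested over 48 hours in 96-well plates. The concentration for 50% growth inhibition is given as GI50. TGI denotes the concentration required for complete inhibition of growth.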

Experiments:
Test in all cases: NCI anticancer screen, dose series, 48 h
SK-OV-3 ovarian = system: SK-OV-3 ovarian
CAKI-1 renal = system: CAKI-1 renal
SR leukemia = system: SR leukemia
SK-MEL-2 melanoma = system: SK-MEL-2 melanoma
HCT-116 colon = system: HCT-116 colon
SK-MEL-28 melanoma = system: SK-MEL-28 melanoma
DU-145 prostate = system: DU-145 prostate
UO-31 renal = system: UO-31 renal
SW-620 colon = system: SW-620 colon
RXF 393 renal = system: RXF 393 renal
786-0 renal = system: 786-0 renal
MOLT-4 leukemia = system: MOLT-4 leukemia
MDA-MB-468 breast = system: MDA-MB-468 breast
MALME-3M melanoma = system: MALME-3M melanoma
PC-3 prostate = system: PC-3 prostate
HOP-92 NSCLC = system: HOP-92 NSCLC
BT-549 breast = system: BT-549 breast
SNB-75 CNS = system: SNB-75 CNS
A549 NSCLC = system: A549 NSCLC
HOP-62 NSCLC = system: HOP-62 NSCLC
MDA-MB-231 breast = system: MDA-MB-231 breast
K-562 leukemia = system: K-562 leukemia
IGROV1 ovarian = system: IGROV1 ovarian
SF-268 CNS = system: SF-268 CNS
RPMI-8226 leukemia = system: RPMI-8226 leukemia
TK-10 renal = system: TK-10 renal
ACHN renal = system: ACHN renal
UACC-62 melanoma = system: UACC-62 melanoma
OVCAR-5 ovarian = system: OVCAR-5 ovarian

CC1CCCCN1CCCNC(=O)N/C(N)=N/c1nc2ccccc2s1 (stereo not drawn)
GI50 (SK-OV-3 ovarian): 19.7 µM
TGI (SK-OV-3 ovarian): 89.1 µM
GI50 (CAKI-1 renal): 13.3 µM
TGI (CAKI-1 renal): 28 µM
GI50 (SR leukemia): 18.7 µM
TGI (SR leukemia): 58.5 µM
GI50 (SK-MEL-2 melanoma): 16 µM
TGI (SK-MEL-2 melanoma): 31.1 µM
GI50 (HCT-116 colon): 15 µM
TGI (HCT-116 colon): 28.9 µM
GI50 (SK-MEL-28 melanoma): 16.6 µM
TGI (SK-MEL-28 melanoma): 30.5 µM
GI50 (DU-145 prostate): 46.7 µM
TGI (DU-145 prostate): > 100 µM
GI50 (UO-31 renal): 10.2 µM
TGI (UO-31 renal): 25.2 µM
GI50 (SW-620 colon): 16.2 µM
TGI (SW-620 colon): 34.1 µM
GI50 (RXF 393 renal): 10.2 µM
TGI (RXF 393 renal): 33.3 µM
GI50 (786-0 renal): 17.2 µM
TGI (786-0 renal): 32.7 µM
GI50 (MOLT-4 leukemia): 12.1 µM
TGI (MOLT-4 leukemia): 51.9 µM
GI50 (MDA-MB-468 breast): 14.7 µM
TGI (MDA-MB-468 breast): 30.7 µM
GI50 (MALME-3M melanoma): 13.9 µM
TGI (MALME-3M melanoma): 27.1 µM
GI50 (PC-3 prostate): 20 µM
TGI (PC-3 prostate): > 100 µM
GI50 (HOP-92 NSCLC): 4.96 µM
TGI (HOP-92 NSCLC): 41.6 µM
GI50 (BT-549 breast): 16.5 µM
TGI (BT-549 breast): 59.3 µM
GI50 (SNB-75 CNS): 7.4 µM
TGI (SNB-75 CNS): 55.2 µM
GI50 (A549 NSCLC): 21 µM
TGI (A549 NSCLC): 57.7 µM
GI50 (HOP-62 NSCLC): 21.3 µM
TGI (HOP-62 NSCLC): > 100 µM
GI50 (MDA-MB-231 breast): 14.8 µM
TGI (MDA-MB-231 breast): 40.7 µM
GI50 (K-562 leukemia): 15.8 µM
TGI (K-562 leukemia): 46.7 µM
GI50 (IGROV1 ovarian): 21.3 µM
TGI (IGROV1 ovarian): 76.7 µM
GI50 (SF-268 CNS): 21.1 µM
TGI (SF-268 CNS): 79.8 µM
GI50 (RPMI-8226 leukemia): 17.4 µM
TGI (RPMI-8226 leukemia): 51.3 µM
GI50 (TK-10 renal): 20.8 µM
TGI (TK-10 renal): 46 µM
GI50 (ACHN renal): 19.1 µM
TGI (ACHN renal): 48.1 µM
GI50 (UACC-62 melanoma): 16.8 µM
TGI (UACC-62 melanoma): 31.7 µM
GI50 (OVCAR-5 ovarian): 22.5 µM
TGI (OVCAR-5 ovarian): 68.5 µM
